Experimental data as given in US10238670B2, “9-aminomethyl minocycline compounds and methods of use thereof in urinary tract infection (UTI) treatment” (Paratek Pharmaceuticals, Inc., priority 2016, dated 2019).
≈ marks a conversion by molar mass, not a printed value.

Columns and labels:
Test in all cases: In vitro MIC, 2010 surveillance isolates
E. coli ESBL− = type: cell-based, Escherichia coli
E. coli ESBL+ = type: cell-based, Escherichia coli
K. pneumoniae ESBL− = type: cell-based, Klebsiella pneumoniae
K. pneumoniae ESBL+ = type: cell-based, Klebsiella pneumoniae
K. oxytoca = type: cell-based; design: MIC90: unit: µg/mL
E. cloacae CeftazS = type: cell-based
E. cloacae CeftazR = type: cell-based
Enterobacter spp = type: cell-based
A. baumanii = type: cell-based; conditions: for % R (resistance): CLSI breakpoints
Acinetobacter spp = type: cell-based; conditions: for % R (resistance): CLSI breakpoints

MIC90 (E. coli ESBL−; Asia/Pac, N=282): 1 µg/mL (≈ 2.08 µM) | MIC90 (E. coli ESBL−; Europe, N=1533): ≤ 0.12 µg/mL | MIC90 (E. coli ESBL−; L. Amer, N=389): ≤ 0.12 µg/mL | MIC90 (E. coli ESBL−; N America, N=1172): ≤ 0.12 µg/mL | MIC90 (E. coli ESBL+; Asia/Pac, N=219): > 16 µg/mL | MIC90 (E. coli ESBL+; Europe, N=274): > 16 µg/mL | MIC90 (E. coli ESBL+; L. Amer, N=168): > 16 µg/mL | MIC90 (E. coli ESBL+; N America, N=134): > 16 µg/mL | MIC90 (K. pneumoniae ESBL−; Asia/Pac, N=189): ≤ 0.12 µg/mL | MIC90 (K. pneumoniae ESBL−; Europe, N=361): ≤ 0.12 µg/mL | MIC90 (K. pneumoniae ESBL−; L. Amer, N=160): ≤ 0.12 µg/mL | MIC90 (K. pneumoniae ESBL−; N America, N=671): ≤ 0.12 µg/mL | MIC90 (K. pneumoniae ESBL+; Asia/Pac, N=124): > 16 µg/mL | MIC90 (K. pneumoniae ESBL+; Europe, N=151): > 16 µg/mL | MIC90 (K. pneumoniae ESBL+; L. Amer, N=209): > 16 µg/mL | MIC90 (K. pneumoniae ESBL+; N America, N=108): > 16 µg/mL | MIC90 (K. oxytoca; Asia/Pac, N=17): > 16 µg/mL | MIC90 (K. oxytoca; Europe, N=158): 1 µg/mL (≈ 2.08 µM) | MIC90 (K. oxytoca; L. Amer, N=25): >16 (16) | MIC90 (K. oxytoca; N America, N=177): 0.25 µg/mL (≈ 0.52 µM) | MIC90 (E. cloacae CeftazS; Asia/Pac, N=100): ≤ 0.12 µg/mL | MIC90 (E. cloacae CeftazS; Europe, N=183): 0.25 µg/mL (≈ 0.52 µM) | MIC90 (E. cloacae CeftazS; L. Amer, N=57): > 16 µg/mL | MIC90 (E. cloacae CeftazS; N America, N=210): ≤ 0.12 µg/mL | MIC90 (E. cloacae CeftazR; Asia/Pac, N=63): > 16 µg/mL | MIC90 (E. cloacae CeftazR; Europe, N=72): > 16 µg/mL | MIC90 (E. cloacae CeftazR; L. Amer, N=42): > 16 µg/mL | MIC90 (E. cloacae CeftazR; N America, N=77): 16 µg/mL (≈ 33.3 µM) | MIC90 (Enterobacter spp; Asia/Pac, N=52): 1 µg/mL (≈ 2.08 µM) | MIC90 (Enterobacter spp; Europe, N=82): 1 µg/mL (≈ 2.08 µM) | MIC90 (Enterobacter spp; L. Amer, N=42): > 16 µg/mL | MIC90 (Enterobacter spp; N America, N=101): 0.5 µg/mL (≈ 1.04 µM) | MIC90 (A. baumanii; Asia/Pac, N=275): > 16 µg/mL | MIC90 (A. baumanii; Europe, N=145): > 16 µg/mL | MIC90 (A. baumanii; L. Amer, N=275): > 16 µg/mL | MIC90 (A. baumanii; N America, N=154): > 16 µg/mL | MIC90 (Acinetobacter spp; Europe, N=43): > 16 µg/mL | MIC90 (Acinetobacter spp; N America, N=42): > 16 µg/mL
Structure (SMILES): CO/N=C(\C(=O)N[C@@H]1C(=O)N2C(C(=O)[O-])=C(C[N+]3(C)CCCC3)CS[C@H]12)c1csc(N)n1 [Cefepime]
% R (resistance) (E. coli ESBL−; Asia/Pac, Eucast breakpoints): 0% | % R (resistance) (E. coli ESBL−; Europe, Eucast breakpoints): 0.1% | % R (resistance) (E. coli ESBL−; L. Amer, CLSI breakpoints): 0% | % R (resistance) (E. coli ESBL−; N America, CLSI breakpoints): 0% | % R (resistance) (E. coli ESBL+; Asia/Pac, Eucast breakpoints): 73.5% | % R (resistance) (E. coli ESBL+; Europe, Eucast breakpoints): 69% | % R (resistance) (E. coli ESBL+; L. Amer, CLSI breakpoints): 47% | % R (resistance) (E. coli ESBL+; N America, CLSI breakpoints): 38.8% | % R (resistance) (K. pneumoniae ESBL−; Asia/Pac, Eucast breakpoints): 0% | % R (resistance) (K. pneumoniae ESBL−; Europe, Eucast breakpoints): 0% | % R (resistance) (K. pneumoniae ESBL−; L. Amer, CLSI breakpoints): 0% | % R (resistance) (K. pneumoniae ESBL−; N America, CLSI breakpoints): 0% | % R (resistance) (K. pneumoniae ESBL+; Asia/Pac, Eucast breakpoints): 65.3% | % R (resistance) (K. pneumoniae ESBL+; Europe, Eucast breakpoints): 76.8% | % R (resistance) (K. pneumoniae ESBL+; L. Amer, CLSI breakpoints): 69.4% | % R (resistance) (K. pneumoniae ESBL+; N America, CLSI breakpoints): 43.5% | % R (resistance) (K. oxytoca; Asia/Pac, Eucast breakpoints): 23.5% | % R (resistance) (K. oxytoca; Europe, Eucast breakpoints): 4.4% | % R (resistance) (K. oxytoca; N America, CLSI breakpoints): 0% | % R (resistance) (E. cloacae CeftazS; Asia/Pac, Eucast breakpoints): 2% | % R (resistance) (E. cloacae CeftazS; Europe, Eucast breakpoints): 1.1% | % R (resistance) (E. cloacae CeftazS; L. Amer, CLSI breakpoints): 10.5% | % R (resistance) (E. cloacae CeftazS; N America, CLSI breakpoints): 0% | % R (resistance) (E. cloacae CeftazR; Asia/Pac, Eucast breakpoints): 38.1% | % R (resistance) (E. cloacae CeftazR; Europe, Eucast breakpoints): 25% | % R (resistance) (E. cloacae CeftazR; L. Amer, CLSI breakpoints): 26.2% | % R (resistance) (E. cloacae CeftazR; N America, CLSI breakpoints): 6.5% | % R (resistance) (Enterobacter spp; Asia/Pac, Eucast breakpoints): 5.8% | % R (resistance) (Enterobacter spp; Europe, Eucast breakpoints): 2.4% | % R (resistance) (Enterobacter spp; L. Amer, CLSI breakpoints): 14.3% | % R (resistance) (Enterobacter spp; N America, CLSI breakpoints): 1% | % R (resistance) (A. baumanii; L. Amer): 78.9% | % R (resistance) (A. baumanii; N America): 61.7% | % R (resistance) (Acinetobacter spp; L. Amer): 55.6% | % R (resistance) (Acinetobacter spp; N America): 16.7%
